Assay results: article PMC12102032, “Chemoproteomics unveils Sofalcone targeting ribosomal proteins to inhibit protein synthesis in Staphylococcus aureus” (Molecular Biomedicine, 2025)

Assays:
[1] = target: T1, 50S ribosomal protein rplB (Staphylococcus aureus, UniProt P60430); assay: microscale thermophoresis; also thermal shift of pure protein and competition with Sof-P labeling; assay type: binding
T1 construct: purified recombinant S. aureus rplB protein (His-Tag labeled)

[2] = target: T2, 50S ribosomal protein rplB (Staphylococcus aureus, UniProt P60430); assay: in-gel fluorescence covalent labeling of purified recombinant protein (click chemistry), competed by Sof and IAA; assay type: binding
T2 construct: purified recombinant rplB protein
T2 sequence (P60430 1-277): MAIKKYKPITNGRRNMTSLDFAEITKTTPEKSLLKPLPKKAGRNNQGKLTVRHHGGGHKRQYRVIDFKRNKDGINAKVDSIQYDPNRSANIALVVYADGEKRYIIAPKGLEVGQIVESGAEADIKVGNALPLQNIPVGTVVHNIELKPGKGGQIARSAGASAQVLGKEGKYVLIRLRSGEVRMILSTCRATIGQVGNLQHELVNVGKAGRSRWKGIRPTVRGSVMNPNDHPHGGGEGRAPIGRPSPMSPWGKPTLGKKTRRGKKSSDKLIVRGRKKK

## CC(C)=CCOc1ccc(/C=C/C(=O)c2ccc(OCC=C(C)C)cc2OCC(=O)O)cc1 [Sof, 2′-carboxymethoxy-4,4′-bis(3-methyl-2-butenyloxy) chalcone]
[1]
  Kd: 1.27 µM

## C#CCNC(=O)COc1cc(OCC=C(C)C)ccc1C(=O)/C=C/c1ccc(OCC=C(C)C)cc1 [Sof-P]
[2]
  in-gel fluorescence covalent labeling of purified recombinant protein (click che): Sof-P labeling of recombinant rplB was concentration-dependent and was effectively competed by excess Sof or iodoacetamide (IAA)
